Reference: the supplement of paper PMC10307832

What was measured:
Assay in all cases: relative viability (nuclei count vs DMSO), 5 days (fraction); higher = more cells survive
Tozasertib = compound: Cc1cc(Nc2cc(N3CCN(C)CC3)nc(Sc3ccc(NC(=O)C4CC4)cc3)n2)n[nH]1 [Tozasertib]
Outline: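 Nuclei counted with MetaXpress define viability as the ratio of treated to vehicle wells, given as a median across plates. The lung cancer cell lines were in 1536-well plates, pinned with five √10-spaced library-drug doses and imaged at 4× after 5 days and Hoechst staining. Plates passed with control CV below 25% and at least one doubling.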

Tozasertib + Bortezomib = compound: Cc1cc(Nc2cc(N3CCN(C)CC3)nc(Sc3ccc(NC(=O)C4CC4)cc3)n2)n[nH]1 [Tozasertib] + CC(C)C[C@H](NC(=O)[C@H](Cc1ccccc1)NC(=O)c1cnccn1)B(O)O [Bortezomib] (partner 0.002 µM)
Outline: (§1)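 Five library-drug doses in √10 steps were combined with a fixed anchor-drug dose, or a single drug was given alone, by pin tool to lung cancer cell lines in 1536-well plates the day after seeding. Nuclei were stained and counted after 5 days. Relative viability is the nuclei count in treated wells over that in vehicle wells, taken as the median of duplicate plates.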

Tozasertib + Olaparib = compound: Cc1cc(Nc2cc(N3CCN(C)CC3)nc(Sc3ccc(NC(=O)C4CC4)cc3)n2)n[nH]1 [Tozasertib] + O=C(c1cc(Cc2n[nH]c(=O)c3ccccc23)ccc1F)N1CCN(C(=O)C2CC2)CC1 [Olaparib] (partner 8 µM)
Outline: as §1

Tozasertib + Linsitinib = compound: Cc1cc(Nc2cc(N3CCN(C)CC3)nc(Sc3ccc(NC(=O)C4CC4)cc3)n2)n[nH]1 [Tozasertib] + C[C@]1(O)C[C@@H](c2nc(-c3ccc4ccc(-c5ccccc5)nc4c3)c3c(N)nccn32)C1 [Linsitinib] (partner 1 µM)
Outline: as §1

Tozasertib + Crizotinib = compound: Cc1cc(Nc2cc(N3CCN(C)CC3)nc(Sc3ccc(NC(=O)C4CC4)cc3)n2)n[nH]1 [Tozasertib] + C[C@@H](Oc1cc(-c2cnn(C3CCNCC3)c2)cnc1N)c1c(Cl)ccc(F)c1Cl [Crizotinib] (partner 1 µM)
Outline: as §1

Tozasertib + Alpelisib = compound: Cc1cc(Nc2cc(N3CCN(C)CC3)nc(Sc3ccc(NC(=O)C4CC4)cc3)n2)n[nH]1 [Tozasertib] + Cc1nc(NC(=O)N2CCC[C@H]2C(N)=O)sc1-c1ccnc(C(C)(C)C(F)(F)F)c1 [Alpelisib] (partner 2 µM)
Outline: as §1

Tozasertib + Pictilisib = compound: Cc1cc(Nc2cc(N3CCN(C)CC3)nc(Sc3ccc(NC(=O)C4CC4)cc3)n2)n[nH]1 [Tozasertib] + CS(=O)(=O)N1CCN(Cc2cc3nc(-c4cccc5[nH]ncc45)nc(N4CCOCC4)c3s2)CC1 [Pictilisib] (partner 1 µM)
Outline: as §1

Tozasertib + Lapatinib = compound: Cc1cc(Nc2cc(N3CCN(C)CC3)nc(Sc3ccc(NC(=O)C4CC4)cc3)n2)n[nH]1 [Tozasertib] + CS(=O)(=O)CCNCc1ccc(-c2ccc3ncnc(Nc4ccc(OCc5cccc(F)c5)c(Cl)c4)c3c2)o1 [Lapatinib] (partner 2 µM)
Outline: as §1

Tozasertib + Navitoclax = compound: Cc1cc(Nc2cc(N3CCN(C)CC3)nc(Sc3ccc(NC(=O)C4CC4)cc3)n2)n[nH]1 [Tozasertib] + CC1(C)CCC(c2ccc(Cl)cc2)=C(CN2CCN(c3ccc(C(=O)NS(=O)(=O)c4ccc(N[C@H](CCN5CCOCC5)CSc5ccccc5)c(S(=O)(=O)C(F)(F)F)c4)cc3)CC2)C1 [Navitoclax] (partner 0.5 µM)
Outline: as §1

Tozasertib + Foretinib = compound: Cc1cc(Nc2cc(N3CCN(C)CC3)nc(Sc3ccc(NC(=O)C4CC4)cc3)n2)n[nH]1 [Tozasertib] + COc1cc2c(Oc3ccc(NC(=O)C4(C(=O)Nc5ccc(F)cc5)CC4)cc3F)ccnc2cc1OCCCN1CCOCC1 [Foretinib] (partner 0.25 µM)
Outline: as §1

Cell Line | relative viability (Tozasertib; 0.004 µM) | relative viability (Tozasertib; 0.01265 µM) | relative viability (Tozasertib; 0.04 µM) | relative viability (Tozasertib; 0.1265 µM) | relative viability (Tozasertib + Bortezomib; first compound 0.004 µM) | relative viability (Tozasertib + Bortezomib; first compound 0.01265 µM) | relative viability (Tozasertib + Bortezomib; first compound 0.04 µM) | relative viability (Tozasertib + Bortezomib; first compound 0.1265 µM) | relative viability (Tozasertib + Olaparib; first compound 0.004 µM) | relative viability (Tozasertib + Olaparib; first compound 0.01265 µM) | relative viability (Tozasertib + Olaparib; first compound 0.04 µM) | relative viability (Tozasertib + Olaparib; first compound 0.1265 µM) | relative viability (Tozasertib + Linsitinib; first compound 0.004 µM) | relative viability (Tozasertib + Linsitinib; first compound 0.01265 µM) | relative viability (Tozasertib + Linsitinib; first compound 0.04 µM) | relative viability (Tozasertib + Linsitinib; first compound 0.1265 µM) | relative viability (Tozasertib + Crizotinib; first compound 0.004 µM) | relative viability (Tozasertib + Crizotinib; first compound 0.04 µM) | relative viability (Tozasertib + Crizotinib; first compound 0.1265 µM) | relative viability (Tozasertib + Alpelisib; first compound 0.004 µM) | relative viability (Tozasertib + Alpelisib; first compound 0.01265 µM) | relative viability (Tozasertib + Alpelisib; first compound 0.04 µM) | relative viability (Tozasertib + Alpelisib; first compound 0.1265 µM) | relative viability (Tozasertib + Pictilisib; first compound 0.004 µM) | relative viability (Tozasertib + Pictilisib; first compound 0.01265 µM) | relative viability (Tozasertib + Pictilisib; first compound 0.04 µM) | relative viability (Tozasertib + Pictilisib; first compound 0.1265 µM) | relative viability (Tozasertib + Lapatinib; first compound 0.004 µM) | relative viability (Tozasertib + Lapatinib; first compound 0.01265 µM) | relative viability (Tozasertib + Lapatinib; first compound 0.04 µM) | relative viability (Tozasertib + Lapatinib; first compound 0.1265 µM) | relative viability (Tozasertib + Navitoclax; first compound 0.004 µM) | relative viability (Tozasertib + Navitoclax; first compound 0.01265 µM) | relative viability (Tozasertib + Navitoclax; first compound 0.04 µM) | relative viability (Tozasertib + Navitoclax; first compound 0.1265 µM) | relative viability (Tozasertib + Foretinib; first compound 0.004 µM) | relative viability (Tozasertib + Foretinib; first compound 0.01265 µM) | relative viability (Tozasertib + Foretinib; first compound 0.04 µM) | relative viability (Tozasertib + Foretinib; first compound 0.1265 µM) | relative viability (Tozasertib + Crizotinib; first compound 0.01265 µM)
Calu-6 | 1.06 | 0.953 | 0.998 | 0.546 | 0.987 | 1.03 | 1.08 | 0.391 | 0.557 | 0.516 | 0.595 | 0.293 | 0.952 | 0.853 | 1 | 0.309 | 0.796 | 0.433 | 0.265 | 1.19 | 0.96 | 0.797 | 0.402 | 0.946 | 0.862 | 0.781 | 0.259 | 1.17 | 0.983 | 1.08 | 0.293 | 0.85 | 0.88 | 0.779 | 0.153 | 0.946 | 0.903 | 0.69 | 0.229 | 
EBC-1 | 1.12 | 1.01 | 1.01 | 0.776 | 0.692 | 0.461 | 0.532 | 0.367 | 0.697 | 0.724 | 0.737 | 0.608 | 0.866 | 0.841 | 0.886 | 0.486 | 0.234 | 0.198 | 0.151 | 0.814 | 0.801 |  | 0.578 | 0.429 | 0.333 | 0.371 | 0.39 | 0.237 | 0.213 | 0.209 | 0.173 | 0.351 | 0.329 | 0.372 | 0.251 | 0.111 | 0.0987 | 0.109 | 0.105 | 0.202
